ChEMBL document CHEMBL1667843, “Discovery of a potent series of non-steroidal non α-trifluoromethyl carbinol glucocorticoid receptor agonists with reduced lipophilicity” (Bioorg Med Chem Lett, 2011)

Key:
Glucocorticoid receptor [1] = target: T1, Glucocorticoid receptor (Homo sapiens, UniProt P04150); experiment: Agonist activity at GR in human A549 cells transfected with luciferase gene linked to MMTV promoter assessed as luciferase transactivation activity; format: functional, cell-based
T1 sequence (P04150 whole entry): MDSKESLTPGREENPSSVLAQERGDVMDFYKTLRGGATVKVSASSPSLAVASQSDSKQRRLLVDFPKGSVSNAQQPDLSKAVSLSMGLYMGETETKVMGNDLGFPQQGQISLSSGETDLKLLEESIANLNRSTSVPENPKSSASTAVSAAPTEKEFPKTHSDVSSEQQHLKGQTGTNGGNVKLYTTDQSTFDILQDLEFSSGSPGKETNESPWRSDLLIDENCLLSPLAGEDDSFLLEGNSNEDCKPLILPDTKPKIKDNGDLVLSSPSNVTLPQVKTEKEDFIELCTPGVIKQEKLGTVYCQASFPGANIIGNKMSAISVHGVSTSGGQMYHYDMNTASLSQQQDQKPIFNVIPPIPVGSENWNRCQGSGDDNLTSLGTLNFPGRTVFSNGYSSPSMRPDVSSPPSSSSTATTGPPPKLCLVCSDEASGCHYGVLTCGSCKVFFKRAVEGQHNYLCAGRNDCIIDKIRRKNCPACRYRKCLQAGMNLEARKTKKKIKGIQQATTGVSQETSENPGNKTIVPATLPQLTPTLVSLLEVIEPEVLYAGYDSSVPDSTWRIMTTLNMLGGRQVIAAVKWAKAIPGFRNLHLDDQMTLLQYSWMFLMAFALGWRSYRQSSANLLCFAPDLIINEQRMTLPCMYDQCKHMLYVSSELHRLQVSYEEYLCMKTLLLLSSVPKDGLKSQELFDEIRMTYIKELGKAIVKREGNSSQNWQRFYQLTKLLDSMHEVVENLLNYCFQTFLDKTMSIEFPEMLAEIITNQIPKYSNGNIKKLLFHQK

Glucocorticoid receptor [2] = target: T1, Glucocorticoid receptor; experiment: Displacement of fluorescent-labelled Dexamethasone from glucocorticoid receptor
Glucocorticoid receptor [3] = target: T1, Glucocorticoid receptor; experiment: Agonist activity at glucocorticoid receptor in human A549 cells by NF-kappaB transrepression assay; format: functional, cell-based
[4] = Selectivity ratio of androgen receptor to glucocorticoid receptor
[5] = Selectivity ratio of progesterone receptor to glucocorticoid receptor

| SMILES | IC50 (Glucocorticoid receptor [1]) | IC50 (Glucocorticoid receptor [2]) | IC50 (Glucocorticoid receptor [3]) | Selectivity ratio [4] | Selectivity ratio [5] |
| --- | --- | --- | --- | --- | --- |
| Cc1cc(C)c(S(=O)(=O)N[C@@H](C)CNc2cc(C)cc3c2cnn3-c2cccc(N3CCCC(CO)C3)c2)c(C)c1 (stereo in doubt; 14l) | 251 nM | 25.1 nM | 20 nM | – | – |
| Cc1cc(C)c(S(=O)(=O)N[C@@H](C)CNc2cc(C)cc3c2cnn3-c2ccc(NCC(N)=O)cc2)c(C)c1 | 63.1 nM | 15.8 nM | 3.16 nM | – | – |
| CCN(C[C@](O)(CNc1cccc2c1cnn2-c1ccc(F)cc1)C(F)(F)F)C(=O)c1c(Cl)cccc1Cl | 0.316 nM | 15.8 nM | 0.0794 nM | – | – |
| Cc1cc(C)c(S(=O)(=O)NC[C@@H](C)Nc2cc(C)cc3c2cnn3-c2ccc(F)cc2)c(C)c1 | 50.1 nM | 12.6 nM | 6.31 nM | – | – |
| Cc1cc(C)c(S(=O)(=O)N[C@@H](C)CNc2cc(C)cc3c2cnn3-c2cccc(N3CCCC(CO)C3)c2)c(C)c1 (single isomer, unassigned; isomer 2) | 316 nM | 15.8 nM | 39.8 nM | – | – |
| Cc1cc(NC[C@H](C)NS(=O)(=O)C(C)C)c2cnn(-c3cccc(C(=O)NC(C)C)c3)c2c1 | 50.1 nM | 39.8 nM | 7.94 nM | – | – |
| Cc1cc(NC[C@H](C)NS(C)(=O)=O)c2cnn(-c3cccc(C(=O)NC(C)C)c3)c2c1 | 2000 nM | 126 nM | 200 nM | – | – |
| Cc1cc(NC[C@H](C)NS(=O)(=O)C2CC2)c2cnn(-c3cccc(C(=O)N4CCC[C@H]4C(N)=O)c3)c2c1 | 3980 nM | 158 nM | 794 nM | – | – |
| Cc1cc(C)c(S(=O)(=O)N[C@@H](C)CNc2cc(C)cc3c2cnn3-c2ccc(NC3CC3)cc2)c(C)c1 | 7.94 nM | 7.94 nM | 1.26 nM | – | – |
| Cc1cc(NC[C@H](C)NS(=O)(=O)C2CC2)c2cnn(-c3cccc(C(=O)N4CCCC(CO)C4)c3)c2c1 (some centres not stated) | > 6310 nM | 126 nM | 251 nM | – | – |
| Cc1cc(C)c(S(=O)(=O)N[C@@H](C)CNc2cc(C)cc3c2cnn3-c2cccc(N3CCCC(CO)C3)c2)c(C)c1 (single isomer, unassigned; isomer 1) | 631 nM | 25.1 nM | 39.8 nM | – | – |
| Cc1cc(NC[C@H](C)NS(=O)(=O)C2CC2)c2cnn(-c3cccc(C(=O)NCC(N)=O)c3)c2c1 | 200 nM | 7.94 nM | 5.01 nM | – | – |
| Cc1cc(NC[C@H](C)NS(=O)(=O)C2CC2)c2cnn(-c3cccc(C(=O)NC(C)C)c3)c2c1 | 12.6 nM | 15.8 nM | 2 nM | – | – |
| CCCS(=O)(=O)N[C@@H](C)CNc1cc(C)cc2c1cnn2-c1cccc(C(=O)NC(C)C)c1 | 79.4 nM | 12.6 nM | 20 nM | – | – |
| Cc1cc(C)c(S(=O)(=O)N[C@@H](C)CNc2cc(C)cc3c2cnn3-c2ccc(N[C@@H](C)C(N)=O)cc2)c(C)c1 | 15.8 nM | 31.6 nM | 7.94 nM | – | – |
| Cc1cc(C)c(S(=O)(=O)N[C@@H](C)CNc2cc(C)cc3c2cnn3-c2ccc(N[C@H](C)C(N)=O)cc2)c(C)c1 | 158 nM | 25.1 nM | 7.94 nM | – | – |
| Cc1cc(NC[C@H](C)NS(=O)(=O)C2CC2)c2cnn(-c3cccc(C(=O)N[C@H](C)C(N)=O)c3)c2c1 | 126 nM | 31.6 nM | 3.16 nM | – | – |
| Cc1cc(NC[C@H](C)NS(=O)(=O)C2CC2)c2cnn(-c3cccc(C(=O)N[C@@H](C)C(N)=O)c3)c2c1 | 200 nM | 39.8 nM | 5.01 nM | – | – |
| Cc1cc(NC[C@H](C)NS(=O)(=O)C2CC2)c2cnn(-c3cccc(C(=O)N(C)[C@H](C)C(N)=O)c3)c2c1 | 50.1 nM | 31.6 nM | 2.51 nM | – | – |

Next, values leading:

| IC50 (Glucocorticoid receptor [1]) | IC50 (Glucocorticoid receptor [2]) | IC50 (Glucocorticoid receptor [3]) | Selectivity ratio [4] | Selectivity ratio [5] | SMILES |
| --- | --- | --- | --- | --- | --- |
| 1.26 nM | 7.94 nM | 0.316 nM | – | – | Cc1cc(C)c(S(=O)(=O)N[C@@H](C)CNc2cc(C)cc3c2cnn3-c2cccc(NC3CC3)c2)c(C)c1 |
| 251 nM | 20 nM | 5.01 nM | – | – | CNc1ccc(-n2ncc3c(NC[C@H](C)NS(=O)(=O)c4c(C)cc(C)cc4C)cc(C)cc32)cc1 |
| 5.01 nM | 15.8 nM | 2 nM | > 100 | 10 | Cc1cc(C)c(S(=O)(=O)N[C@@H](C)CNc2cc(C)cc3c2cnn3-c2ccc(C#N)cc2)c(C)c1 |
| 10 nM | 12.6 nM | 2 nM | – | – | Cc1cc(C)c(S(=O)(=O)N[C@@H](C)CNc2cc(C)cc3c2cnn3-c2ccc(NC(C)C)cc2)c(C)c1 |
| 2 nM | 15.8 nM | 0.2 nM | – | – | Cc1cc(C)c(S(=O)(=O)N[C@@H](C)CNc2cc(C)cc3c2cnn3-c2cccc(N[C@H](C)C(N)=O)c2)c(C)c1 |
| 200 nM | – | 50.1 nM | > 100 | 10 | COc1cccc(-n2ncc3c(NC[C@H](C)NS(=O)(=O)c4c(C)cc(C)cc4C)cc(C)cc32)c1 |
| 0.501 nM | 6.31 nM | 0.126 nM | – | – | Cc1cc(C)c(S(=O)(=O)N[C@@H](C)CNc2cc(C)cc3c2cnn3-c2cccc(NC(C)C)c2)c(C)c1 |
| 2.51 nM | 12.6 nM | 0.251 nM | – | – | Cc1cc(C)c(S(=O)(=O)N[C@@H](C)CNc2cc(C)cc3c2cnn3-c2cccc(NCC(N)=O)c2)c(C)c1 |
| 25.1 nM | 15.8 nM | 7.94 nM | > 100 | 10 | Cc1cc(C)c(S(=O)(=O)N[C@@H](C)CNc2cc(C)cc3c2cnn3-c2cccc(F)c2)c(C)c1 |
| 3.98 nM | 15.8 nM | 1.26 nM | > 100 | 10 | Cc1cc(C)c(S(=O)(=O)N[C@@H](C)CNc2cc(C)cc3c2cnn3-c2ccc(F)cc2)c(C)c1 |
| 50.1 nM | 15.8 nM | 12.6 nM | > 100 | 10 | COc1ccc(-n2ncc3c(NC[C@H](C)NS(=O)(=O)c4c(C)cc(C)cc4C)cc(C)cc32)cc1 |
| 12.6 nM | 31.6 nM | 5.01 nM | > 100 | 10 | Cc1cc(C)c(S(=O)(=O)N[C@@H](C)CNc2cc(C)cc3c2cnn3-c2ccc(S(C)(=O)=O)cc2)c(C)c1 |
| 1.58 nM | 5.01 nM | 0.501 nM | – | – | Cc1cc(C)c(S(=O)(=O)N[C@@H](C)CNc2cc(C)cc3c2cnn3-c2cccc(N[C@@H](C)C(N)=O)c2)c(C)c1 |
